# Source: patent US20250325542A1, “INHIBITORS OF ANTIMOCROBIAL RESISTANCE AND METHOS USING SAME” (Baylor College of Medicine, priority 2022, published 2025)
# Like-named read-outs stand apart in the source and are kept apart here.
# How the values were obtained:
# [1] = target: KPC-2 (Klebsiella pneumoniae, UniProt Q9F663); assay: KPC-2 enzyme inhibition (Ki); assay type: biochemical
# Source text: Several hits were identified from the qDOS38_1 library against the KPC-2 enzyme. All compounds were synthesized without linker C1a. Among the hit compounds, CDD-2312 had the highest enrichment score of 5.9 but a lower count number of 115 compared to other libraries screened at the same time.
# [2] = target: NDM-1 (Klebsiella pneumoniae, UniProt C7C422); assay type: biochemical
# [3] = system: E. coli expressing NDM-1; assay type: cell-based; conditions: comparison of imipenem MIC shifts
# [4] = target: OXA-48 (Klebsiella pneumoniae, UniProt Q6XEC0); assay: biochemical; assay type: biochemical
# [5] = imipenem 40 μM, NDM-1 2 nM, 10 μM ZnSO4
# [6] = nitrocefin 30 μM, OXA-48 0.1 nM, read-out: OXA-48 Ki
# KPC-2, sequence (Q9F663 whole entry, looked up, species assumed): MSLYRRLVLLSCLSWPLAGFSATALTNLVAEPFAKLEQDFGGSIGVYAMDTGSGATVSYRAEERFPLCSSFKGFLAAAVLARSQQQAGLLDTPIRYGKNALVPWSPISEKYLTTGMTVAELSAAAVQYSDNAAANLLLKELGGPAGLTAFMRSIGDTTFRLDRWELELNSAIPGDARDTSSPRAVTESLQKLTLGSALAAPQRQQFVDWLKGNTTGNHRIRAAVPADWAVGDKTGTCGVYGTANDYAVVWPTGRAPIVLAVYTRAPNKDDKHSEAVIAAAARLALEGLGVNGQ
# OXA-48, sequence (Q6XEC0 whole entry, looked up, species assumed): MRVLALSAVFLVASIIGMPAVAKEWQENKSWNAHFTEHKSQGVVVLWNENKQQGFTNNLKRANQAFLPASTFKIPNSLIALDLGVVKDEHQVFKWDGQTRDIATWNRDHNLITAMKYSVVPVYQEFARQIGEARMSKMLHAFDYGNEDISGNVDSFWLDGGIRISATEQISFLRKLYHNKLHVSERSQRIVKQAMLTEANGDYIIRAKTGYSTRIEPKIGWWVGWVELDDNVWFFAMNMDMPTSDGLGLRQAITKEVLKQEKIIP
# NDM-1, sequence (C7C422 whole entry, looked up, species assumed): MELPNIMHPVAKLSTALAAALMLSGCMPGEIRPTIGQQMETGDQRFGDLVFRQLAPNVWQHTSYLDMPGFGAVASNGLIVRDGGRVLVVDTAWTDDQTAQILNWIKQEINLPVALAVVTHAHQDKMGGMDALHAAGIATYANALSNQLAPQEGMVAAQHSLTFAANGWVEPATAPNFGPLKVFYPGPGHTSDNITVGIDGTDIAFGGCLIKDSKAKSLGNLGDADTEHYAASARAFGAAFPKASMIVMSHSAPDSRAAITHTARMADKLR
smiles,measurement,setting,value
"CNC(=O)c1cncc(-c2cnc(NCC(=O)O)nc2)c1 [CDD-2308, (5-(5-(methylcarbamoyl)pyridin-3-yl)pyrimidin-2-yl)glycine]",Ki,[1],3580 ± 1150 µM
"CNC(=O)c1ccc(-c2cnc(NCC(=O)O)nc2)cc1F [CDD-2309, (5-(3-fluoro-4-(methylcarbamoyl)phenyl)pyrimidin-2-yl)glycine]",Ki,[1],980 ± 180 µM
"CNC(=O)c1cc2cc(-c3cnc(NCC(=O)O)nc3)ccc2nc1C [CDD-2310, (5-(2-methyl-3-(methylcarbamoyl)quinolin-6-yl)pyrimidin-2-yl)glycine]",Ki,[1],1240 ± 532 µM
"COc1cc(-c2cnc(NCC(=O)O)nc2)cc(C=O)c1OCC(=O)O [CDD-2311, (5-(4-(carboxymethoxy)-3-formyl-5-methoxyphenyl)pyrimidin-2-yl)glycine]",Ki,[1],522 ± 113 µM
"CNC(=O)CCc1ccc(CNCc2cccc(NCc3ccc(-c4ccc(C(=O)O)c(O)c4)o3)c2)cc1 [CDD-2335, 2-hydroxy-4-(5-(((3-(((4-(3-(methylamino)-3-oxopropyl)benzyl)amino)methyl)phenyl)amino)methyl)furan-2-yl)benzoic acid]",fold reduction of potency against NDM-1,[2],4 fold
same,Ki,[2]; [5],13 ± 1.5 µM
"CNC(=O)CCc1ccc(CNCc2cccc(NCc3ccc(-c4ccccc4CC(=O)O)cc3)c2)cc1 [CDD-2336, 2-(4′-(((3-(((4-(3-(methylamino)-3-oxopropyl)benzyl)amino)methyl)phenyl)amino)methyl)-[1,1′-biphenyl]-2-yl)acetic acid]",Ki,[2]; [5],144 ± 16 µM
"CNCc1ccc(-c2ccc(C(=O)O)c(O)c2)o1 [CDD-2363, 2-hydroxy-4-(5-((methylamino)methyl)furan-2-yl)benzoic acid]",Ki,[2],397 ± 113 µM
same,NDM-1 Ki (μM),[2],weak potency
"CNC(=O)CCC1CCN(C(=O)c2ccc(CNCc3ccc(O)c(C(=O)O)c3)s2)CC1 [CDD-2371, 2-hydroxy-5-((((5-(4-(3-(methylamino)-3-oxopropyl)piperidine-1-carbonyl)thiophen-2-yl)methyl)amino)methyl)benzoic acid]",Ki,[2]; [5],217 ± 46 µM
"CNC(=O)C1CCC(C(=O)NCc2ccc(NCc3ccc(O)c(C(=O)O)c3)nc2)CC1 (stereo not drawn) [CDD-2395, 2-hydroxy-5-(((5-((4-(methylcarbamoyl)cyclohexane-1-carboxamido)methyl)pyridin-2-yl)amino)methyl)benzoic acid]",Ki,[2]; [5],153 ± 28 µM
"CNCc1cccc(NCc2ccc(-c3ccc(C(=O)O)cc3)o2)c1 [CDD-2463, 4-(5-(((3-((methylamino)methyl)phenyl)amino)methyl)furan-2-yl)benzoic acid]",Ki,[2],8.5 µM
same,fold reduction of potency against NDM-1,[2],2.5 fold
"CNCc1cccc(NCc2ccc(-c3ccc(O)c(C(=O)O)c3)o2)c1 [CDD-2510, 2-hydroxy-5-(5-(((3-((methylamino)methyl)phenyl)amino)methyl)furan-2-yl)benzoic acid]",Ki,[2]; [5],60 ± 10 µM
"CNCc1cccc(NCc2ccc(-c3cccc(C(=O)O)c3O)o2)c1 [CDD-2522, 2-hydroxy-3-(5-(((3-((methylamino)methyl)phenyl)amino)methyl)furan-2-yl)benzoic acid]",synergy with imipenem,[3],reduced synergy compared to CDD-2376 and CDD-2511
"NCc1cccc(NCc2ccc(-c3cccc(C(=O)O)c3O)o2)c1 [CDD-2567, 3-(5-(((3-(aminomethyl)phenyl)amino)methyl)furan-2-yl)-2-hydroxybenzoic acid]",Ki,[2]; [5],24 ± 1.5 µM
"NCc1cccc(NCc2ccc(-c3ccc(C(=O)O)c(O)c3)s2)c1 [CDD-2600, 4-(5-(((3-(aminomethyl)phenyl)amino)methyl)thiophen-2-yl)-2-hydroxybenzoic acid]",Ki,[2],1.6 ± 0.3 µM
same,fold improvement in potency against NDM-1,[2],2 fold
"CNCc1cccc(NCc2ccc(-c3cccc(C(=O)O)c3)o2)c1 [CDD-2602, 3-(5-(((3-((methylamino)methyl)phenyl)amino)methyl)furan-2-yl)benzoic acid]",Ki,[2]; [5],46 ± 11 µM
"NCc1cccc(NCc2ccc(-c3ccc(C(=O)O)c(O)c3)cc2)c1 [CDD-2615, 4′-(((3-(aminomethyl)phenyl)amino)methyl)-3-hydroxy-[1,1′-biphenyl]-4-carboxylic acid]",Ki,[2]; [5],14 ± 1.1 µM
"COc1cc(-c2cc(O)cc(C(=O)O)c2)ccc1C(=O)O [CDD-2724, 5-hydroxy-3′-methoxy-[1,1′-biphenyl]-3,4′-dicarboxylic acid]",Ki,[4],0.63 ± 0.13 µM
same,fold decrease in Ki / enhancement of potency against OXA-48,[4]; relative to the related analogue named in the sentence,2 fold
"CNC(=O)CCc1ccc(CNc2cccc(CCCNCc3ccccc3-c3cccc(C(=O)O)c3)c2)cc1 [CDD-2819, 2′-(((3-(3-((4-(3-(methylamino)-3-oxopropyl)benzyl)amino)phenyl)propyl)amino)methyl)-[1,1′-biphenyl]-3-carboxylic acid]",Ki,[4],88 ± 4.4 µM
"Nc1cccc(CCCNCc2ccccc2-c2cccc(C(=O)O)c2)c1 [CDD-2820, 2′-(((3-(3-aminophenyl)propyl)amino)methyl)-[1,1′-biphenyl]-3-carboxylic acid]",Ki,[4]; [6],127 ± 86 µM
"CN(C)C(=O)C1CCN(c2ccc(CNCc3ccccc3-c3cccc(C(=O)O)c3)cc2C#N)CC1 [CDD-2836, 2′-(((3-cyano-4-(4-(dimethylcarbamoyl)piperidin-1-yl)benzyl)amino)methyl)-[1,1′-biphenyl]-3-carboxylic acid]",Ki,[4]; [6],7.6 ± 1 µM
"NCc1cccc(NCc2cc(C(=O)O)cc(-c3ccc(C(=O)O)c(O)c3)c2)c1 [CDD-2897, 5-(((3-(aminomethyl)phenyl)amino)methyl)-3′-hydroxy-[1,1′-biphenyl]-3,4′-dicarboxylic acid]",Ki,[2],71 ± 37 µM
same,fold reduction of potency against NDM-1,[2],more than 10 fold
"CNCc1cccc(NCc2cccc(-c3ccc(C(=O)O)c(O)c3)c2)c1 [CDD-2906, 3-hydroxy-3′-(((3-((methylamino)methyl)phenyl)amino)methyl)-[1,1′-biphenyl]-4-carboxylic acid]",Ki,[2]; [5],11 ± 2 µM
"Cc1cccc(NCc2cccc(-c3ccc(C(=O)O)c(O)c3)c2)c1 [CDD-2907, 3-hydroxy-3′-((m-tolylamino)methyl)-[1,1′-biphenyl]-4-carboxylic acid]",Ki,[2],> 100 µM
same,NDM-1 Ki (μM),[2],near-complete loss of potency
"CC(=O)NCc1cccc(NCc2cccc(-c3ccc(C(=O)O)c(O)c3)c2)c1 [CDD-2919, 3′-(((3-(acetamidomethyl)phenyl)amino)methyl)-3-hydroxy-[1,1′-biphenyl]-4-carboxylic acid]",Ki,[2],> 100 µM
same,NDM-1 Ki (μM),[2],near-complete loss of potency
"CNC(=O)Cc1cccc(NCc2cccc(-c3ccc(C(=O)O)c(O)c3)c2)c1 [CDD-2920, 3-hydroxy-3′-(((3-(2-(methylamino)-2-oxoethyl)phenyl)amino)methyl)-[1,1′-biphenyl]-4-carboxylic acid]",Ki,[2]; [5],87 ± 53 µM
"NCc1cc(O)cc(NCc2cccc(-c3ccc(C(=O)O)c(O)c3)c2)c1 [CDD-2974, 3′-(((3-(aminomethyl)-5-hydroxyphenyl)amino)methyl)-3-hydroxy-[1,1′-biphenyl]-4-carboxylic acid]",Ki,[2]; [5],3.5 ± 1.4 µM
"NCc1cncc(NCc2cccc(-c3ccc(C(=O)O)c(O)c3)c2)c1 [CDD-2975, 3′-(((5-(aminomethyl)pyridin-3-yl)amino)methyl)-3-hydroxy-[1,1′-biphenyl]-4-carboxylic acid]",Ki,[2]; [5],25 ± 14 µM
"NCc1cccc(NC(=O)c2cccc(-c3ccc(C(=O)O)c(O)c3)c2)c1 [CDD-2985, 3′-((3-(aminomethyl)phenyl)carbamoyl)-3-hydroxy-[1,1′-biphenyl]-4-carboxylic acid]",Ki,[2],29 ± 15 µM
same,synergy with imipenem,[3],reduced synergy compared to CDD-2376 and CDD-2511
"NCc1cccc(NCc2cncc(-c3ccc(C(=O)O)c(O)c3)c2)c1 [CDD-2998, 4-(5-(((3-(aminomethyl)phenyl)amino)methyl)pyridin-3-yl)-2-hydroxybenzoic acid]",Ki,[2],1.9 ± 0.6 µM
"NCc1cccc(NCc2cc(-c3ccc(C(=O)O)c(O)c3)ccn2)c1 [CDD-3059, 4-(2-(((3-(aminomethyl)phenyl)amino)methyl)pyridin-4-yl)-2-hydroxybenzoic acid]",Ki,[2]; [5],4.8 ± 0.4 µM
"NCc1cccc(NCc2ccnc(-c3ccc(C(=O)O)c(O)c3)c2)c1 [CDD-3060, 4-(4-(((3-(aminomethyl)phenyl)amino)methyl)pyridin-2-yl)-2-hydroxybenzoic acid]",Ki,[2]; [5],8.1 ± 2 µM
"NCc1cccc(N2Cc3ccc(-c4ccc(C(=O)O)c(O)c4)cc3C2)c1 [CDD-3080, 4-(2-(3-(aminomethyl)phenyl)isoindolin-5-yl)-2-hydroxybenzoic acid]",Ki,[2],43 ± 24 µM
same,synergy with imipenem,[3],reduced synergy compared to CDD-2376 and CDD-2511
